In brackets after ≈: the same amount, converted by molar mass.

One test concerns Candida parapsilosis. Kind of test: Antifungal activity against Candida parapsilosis GIM 2.190 assessed as inhibition of fungal growth by CLSI M27-A3 guidelines based method. The settings on record: Lodderomyces parapsilosis. In kind it is functional.
One may read the MIC80 as the lowest concentration that inhibits either 80% of growth or 80% of the strains tested, depending on the study. Regarding `CN(Cc1ccc(N2CCN(Cc3ccc(C#N)cc3)CC2)cc1)CC(O)(Cn1cncn1)c1ccc(F)cc1F` (centres undefined), the MIC80 came out at 0.1 µg/mL (≈ 0.179 µM).

As for `CN(Cc1ccc(N2CCN(Cc3ccc(C(F)(F)F)cc3Br)CC2)cc1)CC(O)(Cn1cncn1)c1ccc(F)cc1F` (centres undefined), the MIC80 came out at 0.013 µg/mL (≈ 0.0191 µM).

`CN(Cc1ccc(N2CCN(Cc3cccc(Cl)c3)CC2)cc1)CC(O)(Cn1cncn1)c1ccc(F)cc1F` (centres undefined): the MIC80 came out at 0.006 µg/mL (≈ 0.0106 µM).

Consider `CN(Cc1ccc(N2CCN(Cc3ccccc3F)CC2)cc1)CC(O)(Cn1cncn1)c1ccc(F)cc1F` (centres undefined), for which the MIC80 amounted to 0.025 µg/mL (≈ 0.0454 µM).

Consider `CN(Cc1ccc(N2CCN(Cc3ccccc3)CC2)cc1)CC(O)(Cn1cncn1)c1ccc(F)cc1F` (centres undefined), for which the MIC80 came out at 0.025 µg/mL (≈ 0.0469 µM).

For the molecule `CN(Cc1ccc(N2CCN(Cc3ccc(S(C)(=O)=O)cc3)CC2)cc1)CC(O)(Cn1cncn1)c1ccc(F)cc1F` (centres undefined), the MIC80 was 0.8 µg/mL (≈ 1.31 µM).

`CN(Cc1ccc(N2CCN(C(=O)C3CC3)CC2)cc1)CC(O)(Cn1cncn1)c1ccc(F)cc1F` (centres undefined): the MIC80 was determined as 0.5 µg/mL (≈ 0.979 µM).

For another test, the system named is Candida albicans. Briefly: Antifungal activity against Candida albicans GIM 2.194 assessed as inhibition of fungal growth by CLSI M27-A3 guidelines based method. The class given is functional.
Settings: not given
Regarding `CN(Cc1ccc(N2CCN(Cc3ccc(C#N)cc3)CC2)cc1)CC(O)(Cn1cncn1)c1ccc(F)cc1F` (centres undefined), the MIC80 came to 0.05 µg/mL (≈ 0.0897 µM).

On to `CN(Cc1ccc(N2CCN(Cc3ccc(C(F)(F)F)cc3Br)CC2)cc1)CC(O)(Cn1cncn1)c1ccc(F)cc1F` (centres undefined), for which the MIC80 is 0.025 µg/mL (≈ 0.0368 µM).

In the case of `CN(Cc1ccc(N2CCN(Cc3cccc(Cl)c3)CC2)cc1)CC(O)(Cn1cncn1)c1ccc(F)cc1F` (centres undefined), the MIC80 was 0.013 µg/mL (≈ 0.0229 µM).

In the case of `CN(Cc1ccc(N2CCN(Cc3ccccc3F)CC2)cc1)CC(O)(Cn1cncn1)c1ccc(F)cc1F` (centres undefined), the MIC80 turned out to be 0.006 µg/mL (≈ 0.0109 µM).

As to `CN(Cc1ccc(N2CCN(Cc3ccccc3)CC2)cc1)CC(O)(Cn1cncn1)c1ccc(F)cc1F` (centres undefined), the MIC80 amounted to 0.013 µg/mL (≈ 0.0244 µM).

Take `CN(Cc1ccc(N2CCN(Cc3ccc(S(C)(=O)=O)cc3)CC2)cc1)CC(O)(Cn1cncn1)c1ccc(F)cc1F` (centres undefined): the MIC80 turned out to be 0.8 µg/mL (≈ 1.31 µM).

Turning to `CN(Cc1ccc(N2CCN(C(=O)C3CC3)CC2)cc1)CC(O)(Cn1cncn1)c1ccc(F)cc1F` (centres undefined), the MIC80 was determined as 1 µg/mL (≈ 1.96 µM).

Another test has as its system Candida albicans. Briefly: Antifungal activity against Candida albicans SC5314 assessed as inhibition of fungal growth by CLSI M27-A3 guidelines based method. In kind it is functional.
Settings: not given
For `CN(Cc1ccc(N2CCN(Cc3ccc(C#N)cc3)CC2)cc1)CC(O)(Cn1cncn1)c1ccc(F)cc1F` (centres undefined), the MIC80 came out at 0.05 µg/mL (≈ 0.0897 µM).

Turning to `CN(Cc1ccc(N2CCN(Cc3ccc(C(F)(F)F)cc3Br)CC2)cc1)CC(O)(Cn1cncn1)c1ccc(F)cc1F` (centres undefined), the MIC80 came to 0.013 µg/mL (≈ 0.0191 µM).

Take `CN(Cc1ccc(N2CCN(Cc3cccc(Cl)c3)CC2)cc1)CC(O)(Cn1cncn1)c1ccc(F)cc1F` (centres undefined): the MIC80 was found to be 0.025 µg/mL (≈ 0.0441 µM).

In the case of `CN(Cc1ccc(N2CCN(Cc3ccccc3F)CC2)cc1)CC(O)(Cn1cncn1)c1ccc(F)cc1F` (centres undefined), the MIC80 came out at 0.05 µg/mL (≈ 0.0908 µM).

Turning to `CN(Cc1ccc(N2CCN(Cc3ccccc3)CC2)cc1)CC(O)(Cn1cncn1)c1ccc(F)cc1F` (centres undefined), the MIC80 turned out to be 0.013 µg/mL (≈ 0.0244 µM).

Regarding `CN(Cc1ccc(N2CCN(Cc3ccc(S(C)(=O)=O)cc3)CC2)cc1)CC(O)(Cn1cncn1)c1ccc(F)cc1F` (centres undefined), the MIC80 turned out to be 0.4 µg/mL (≈ 0.655 µM).

For `CN(Cc1ccc(N2CCN(C(=O)C3CC3)CC2)cc1)CC(O)(Cn1cncn1)c1ccc(F)cc1F` (centres undefined), the MIC80 worked out at 0.25 µg/mL (≈ 0.49 µM).

In another test the test system is Pichia kudriavzevii. Briefly: Antifungal activity against Candida krusei GIM 2.1 assessed as inhibition of fungal growth by CLSI M27-A3 guidelines based method.
Settings: not given
The class given is functional.
Regarding `CN(Cc1ccc(N2CCN(Cc3ccc(C#N)cc3)CC2)cc1)CC(O)(Cn1cncn1)c1ccc(F)cc1F` (centres undefined), the MIC80 is 1.6 µg/mL (≈ 2.87 µM).

For the molecule `CN(Cc1ccc(N2CCN(Cc3ccc(C(F)(F)F)cc3Br)CC2)cc1)CC(O)(Cn1cncn1)c1ccc(F)cc1F` (centres undefined), the MIC80 stood at 0.2 µg/mL (≈ 0.294 µM).

As for `CN(Cc1ccc(N2CCN(Cc3cccc(Cl)c3)CC2)cc1)CC(O)(Cn1cncn1)c1ccc(F)cc1F` (centres undefined), the MIC80 was determined as 0.1 µg/mL (≈ 0.176 µM).

For the molecule `CN(Cc1ccc(N2CCN(Cc3ccccc3F)CC2)cc1)CC(O)(Cn1cncn1)c1ccc(F)cc1F` (centres undefined), the MIC80 came to 0.1 µg/mL (≈ 0.182 µM).

As to `CN(Cc1ccc(N2CCN(Cc3ccccc3)CC2)cc1)CC(O)(Cn1cncn1)c1ccc(F)cc1F` (centres undefined), the MIC80 stood at 0.4 µg/mL (≈ 0.751 µM).

As for `CN(Cc1ccc(N2CCN(Cc3ccc(S(C)(=O)=O)cc3)CC2)cc1)CC(O)(Cn1cncn1)c1ccc(F)cc1F` (centres undefined), the MIC80 amounted to 3.2 µg/mL (≈ 5.24 µM).

With `CN(Cc1ccc(N2CCN(C(=O)C3CC3)CC2)cc1)CC(O)(Cn1cncn1)c1ccc(F)cc1F` (centres undefined), the MIC80 came out at 32 µg/mL (≈ 62.7 µM).

For a further test, the system named is Nakaseomyces glabratus. Kind of test: Antifungal activity against Candida glabrata assessed as inhibition of fungal growth by CLSI M27-A3 guidelines based method. In kind it is functional.
Settings: not given
For `CN(Cc1ccc(N2CCN(Cc3ccc(C#N)cc3)CC2)cc1)CC(O)(Cn1cncn1)c1ccc(F)cc1F` (centres undefined), the MIC80 was found to be 1.6 µg/mL (≈ 2.87 µM).

As for `CN(Cc1ccc(N2CCN(Cc3ccc(C(F)(F)F)cc3Br)CC2)cc1)CC(O)(Cn1cncn1)c1ccc(F)cc1F` (centres undefined), the MIC80 is 0.2 µg/mL (≈ 0.294 µM).

`CN(Cc1ccc(N2CCN(Cc3cccc(Cl)c3)CC2)cc1)CC(O)(Cn1cncn1)c1ccc(F)cc1F` (centres undefined): the MIC80 amounted to 0.2 µg/mL (≈ 0.353 µM).

On to `CN(Cc1ccc(N2CCN(Cc3ccccc3F)CC2)cc1)CC(O)(Cn1cncn1)c1ccc(F)cc1F` (centres undefined), for which the MIC80 was found to be 0.4 µg/mL (≈ 0.726 µM).

As to `CN(Cc1ccc(N2CCN(Cc3ccccc3)CC2)cc1)CC(O)(Cn1cncn1)c1ccc(F)cc1F` (centres undefined), the MIC80 is 0.4 µg/mL (≈ 0.751 µM).

Regarding `CN(Cc1ccc(N2CCN(Cc3ccc(S(C)(=O)=O)cc3)CC2)cc1)CC(O)(Cn1cncn1)c1ccc(F)cc1F` (centres undefined), the MIC80 was found to be 3.2 µg/mL (≈ 5.24 µM).

On to `CN(Cc1ccc(N2CCN(C(=O)C3CC3)CC2)cc1)CC(O)(Cn1cncn1)c1ccc(F)cc1F` (centres undefined), for which the MIC80 was found to be 32 µg/mL (≈ 62.7 µM).

The subject of another test is Cryptococcus neoformans. Kind of test: Antifungal activity against Cryptococcus neoformans CGMCC 2.3161 assessed as inhibition of fungal growth by CLSI M27-A3 guidelines based method.
Settings: not given
In kind it is functional.
With `CN(Cc1ccc(N2CCN(Cc3ccc(C#N)cc3)CC2)cc1)CC(O)(Cn1cncn1)c1ccc(F)cc1F` (centres undefined), the MIC80 amounted to 0.2 µg/mL (≈ 0.359 µM).

For `CN(Cc1ccc(N2CCN(Cc3ccc(C(F)(F)F)cc3Br)CC2)cc1)CC(O)(Cn1cncn1)c1ccc(F)cc1F` (centres undefined), the MIC80 stood at 0.2 µg/mL (≈ 0.294 µM).

For `CN(Cc1ccc(N2CCN(Cc3cccc(Cl)c3)CC2)cc1)CC(O)(Cn1cncn1)c1ccc(F)cc1F` (centres undefined), the MIC80 turned out to be 0.1 µg/mL (≈ 0.176 µM).

In the case of `CN(Cc1ccc(N2CCN(Cc3ccccc3F)CC2)cc1)CC(O)(Cn1cncn1)c1ccc(F)cc1F` (centres undefined), the MIC80 came to 0.2 µg/mL (≈ 0.363 µM).

Turning to `CN(Cc1ccc(N2CCN(Cc3ccccc3)CC2)cc1)CC(O)(Cn1cncn1)c1ccc(F)cc1F` (centres undefined), the MIC80 is 0.2 µg/mL (≈ 0.375 µM).

Take `CN(Cc1ccc(N2CCN(Cc3ccc(S(C)(=O)=O)cc3)CC2)cc1)CC(O)(Cn1cncn1)c1ccc(F)cc1F` (centres undefined): the MIC80 came out at 3.2 µg/mL (≈ 5.24 µM).

`CN(Cc1ccc(N2CCN(C(=O)C3CC3)CC2)cc1)CC(O)(Cn1cncn1)c1ccc(F)cc1F` (centres undefined): the MIC80 worked out at 16 µg/mL (≈ 31.3 µM).

In another test the test system is Candida tropicalis. Briefly: Antifungal activity against Candida tropicalis GIM 2.183 assessed as inhibition of fungal growth by CLSI M27-A3 guidelines based method. In kind it is functional.
Settings: not given
As to `CN(Cc1ccc(N2CCN(Cc3ccc(C#N)cc3)CC2)cc1)CC(O)(Cn1cncn1)c1ccc(F)cc1F` (centres undefined), the MIC80 worked out at 0.05 µg/mL (≈ 0.0897 µM).

On to `CN(Cc1ccc(N2CCN(Cc3ccc(C(F)(F)F)cc3Br)CC2)cc1)CC(O)(Cn1cncn1)c1ccc(F)cc1F` (centres undefined), for which the MIC80 amounted to 0.025 µg/mL (≈ 0.0368 µM).

For `CN(Cc1ccc(N2CCN(Cc3cccc(Cl)c3)CC2)cc1)CC(O)(Cn1cncn1)c1ccc(F)cc1F` (centres undefined), the MIC80 came to 0.013 µg/mL (≈ 0.0229 µM).

For the molecule `CN(Cc1ccc(N2CCN(Cc3ccccc3F)CC2)cc1)CC(O)(Cn1cncn1)c1ccc(F)cc1F` (centres undefined), the MIC80 stood at 0.05 µg/mL (≈ 0.0908 µM).

For `CN(Cc1ccc(N2CCN(Cc3ccccc3)CC2)cc1)CC(O)(Cn1cncn1)c1ccc(F)cc1F` (centres undefined), the MIC80 was 0.013 µg/mL (≈ 0.0244 µM).

On to `CN(Cc1ccc(N2CCN(Cc3ccc(S(C)(=O)=O)cc3)CC2)cc1)CC(O)(Cn1cncn1)c1ccc(F)cc1F` (centres undefined), for which the MIC80 worked out at 0.4 µg/mL (≈ 0.655 µM).

For `CN(Cc1ccc(N2CCN(C(=O)C3CC3)CC2)cc1)CC(O)(Cn1cncn1)c1ccc(F)cc1F` (centres undefined), the MIC80 worked out at 1 µg/mL (≈ 1.96 µM).

(Values after ChEMBL document CHEMBL6092162, “Identification of novel and potent triazoles targeting CYP51 for antifungal: Design, synthesis, and biological study” (Eur J Med Chem, 2024).)
